Laboratory results taken from patent publication US10131652B2, “Pyrimidinyloxy benzene derivatives as herbicides” (E. I. DU PONT DE NEMOURS AND COMPANY, priority 2014, dated 2018).

What was measured:
Type in all cases: in vivo
[1] = system: barnyardgrass (Echinochloa crus-galli); test: Test B pre-/postemergence plant response
Summary of the method: (§1)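 Greenhouse pots, loam/sand soil; compound formulated with surfactant in non-phytotoxic solvent. Preemergence soil spray and postemergence spray at 1–2 leaf stage run simultaneously. Visual injury, 0–100, about 10 days post-treatment.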

[2] = system: corn (Zea mays); test: Test B pre-/postemergence plant response
Summary of the method: as §1

[3] = system: giant foxtail (Setaria faberii); test: Test B pre-/postemergence plant response
Summary of the method: as §1

[4] = system: pigweed (Amaranthus retroflexus); test: Test B pre-/postemergence plant response
Summary of the method: as §1

[5] = system: wheat (Triticum aestivum); test: Test B pre-/postemergence plant response
Summary of the method: as §1

[6] = system: barnyardgrass (Echinochloa crus-galli); test: Test D pre-/postemergence plant response
Summary of the method: (§2)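 Pre-/post-emergence greenhouse test. Pre: seeded loam+sand, sprayed same day. Post: 1–4 leaf plants (2–18 cm), peat/vermiculite mix. Formulation: non-phytotoxic solvent + surfactant. Scored visually d13–15, 0–100 vs control.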

[7] = system: blackgrass (Alopecurus myosuroides); test: Test D pre-/postemergence plant response
Summary of the method: as §2

[8] = system: giant foxtail (Setaria faberii); test: Test D pre-/postemergence plant response
Summary of the method: as §2

[9] = system: johnsongrass (Sorghum halepense); test: Test D pre-/postemergence plant response
Summary of the method: as §2

[10] = system: large (Lg) crabgrass (Digitaria sanguinalis); test: Test D pre-/postemergence plant response
Summary of the method: as §2

[11] = system: morningglory (Ipomoea coccinea); test: Test D pre-/postemergence plant response
Summary of the method: as §2

[12] = system: pigweed (Amaranthus retroflexus); test: Test D pre-/postemergence plant response
Summary of the method: as §2

[13] = system: ragweed (common ragweed, Ambrosia elatior); test: Test D pre-/postemergence plant response
Summary of the method: as §2

[14] = system: soybean (Glycine max); test: Test D pre-/postemergence plant response
Summary of the method: as §2

[15] = system: waterhemp (common waterhemp, Amaranthus rudis); test: Test D pre-/postemergence plant response
Summary of the method: as §2

[16] = system: yellow nutsedge (Cyperus esculentus); test: Test D pre-/postemergence plant response
Summary of the method: as §2

[17] = 125 g ai/ha, postemergence, 0 to 100 scale, 0 no effect, 100 complete control
[18] = Postemergence, 500 g ai/ha, 0 to 100 scale (0 no effect, 100 complete control)
[19] = Preemergence, 125 g ai/ha, 0 to 100 scale (0 no effect, 100 complete control)
[20] = Preemergence, 500 g ai/ha, 0 to 100 scale where 0 is no effect and 100 is complete control
[21] = Postemergence, 31 g ai/ha, scale 0 to 100 (0 no effect, 100 complete control)
[22] = Postemergence, 62 g ai/ha, scale 0 to 100, 0 no effect, 100 complete control
[23] = Postemergence, 125 g ai/ha, scale 0 to 100, 0 no effect, 100 complete control
[24] = Preemergence, 16 g ai/ha, scale 0 to 100 (0 no effect, 100 complete control)
[25] = Preemergence, 31 g ai/ha, scale 0 to 100 (0 no effect, 100 complete control)
[26] = Preemergence, 62 g ai/ha, scale 0 to 100 (0 no effect, 100 complete control)

SMILES: FC(F)c1cc(-c2c(Cl)cccc2Oc2ncc(Cl)cn2)no1 [Compound 179]
- Plant response rating, Barnyardgrass [1, 17]: 10
- Plant response rating, Barnyardgrass [1, 18]: 80
- Barnyardgrass plant response rating [1, 19]: 10
- Plant response rating, Barnyardgrass [1, 20]: 90
- Plant response rating, Corn [2, 17]: 10
- Plant response rating, Corn [2, 18]: 40
- Plant response rating, Foxtail, Giant [3, 17]: 40
- Plant response rating, Foxtail, Giant [3, 18]: 80
- Foxtail, Giant plant response rating [3, 19]: 80
- Plant response rating, Foxtail, Giant [3, 20]: 100
- Plant response rating, Pigweed [4, 17]: 100
- Plant response rating, Pigweed [4, 18]: 100
- Pigweed plant response rating [4, 19]: 100
- Plant response rating, Pigweed [4, 20]: 100
- Plant response rating, Wheat [5, 17]: 40
- Plant response rating, Wheat [5, 18]: 90
- Plant response rating (scale 0 to 100), Barnyardgrass ([6]; Postemergence, 16 g ai/ha): 0
- Barnyardgrass plant response rating [6, 21]: 0
- Plant response rating, Barnyardgrass [6, 22]: 5
- Plant response rating, Barnyardgrass [6, 23]: 5
- Plant response rating (scale 0 to 100), Barnyardgrass ([6]; Preemergence, 125 g ai/ha): 35
- Plant response rating, Barnyardgrass [6, 24]: 0
- Plant response rating, Barnyardgrass [6, 25]: 5
- Plant response rating, Barnyardgrass [6, 26]: 15
- Plant response rating (scale 0 to 100), Blackgrass ([7]; Postemergence, 16 g ai/ha): 5
- Blackgrass plant response rating [7, 21]: 5
- Plant response rating, Blackgrass [7, 22]: 15
- Plant response rating, Blackgrass [7, 23]: 20
- Plant response rating (scale 0 to 100), Blackgrass ([7]; Preemergence, 125 g ai/ha): 80
- Plant response rating, Blackgrass [7, 24]: 0
- Plant response rating, Blackgrass [7, 25]: 30
- Plant response rating, Blackgrass [7, 26]: 45
- Plant response rating (scale 0 to 100), Foxtail, Giant ([8]; Postemergence, 16 g ai/ha): 5
- Foxtail, Giant plant response rating [8, 21]: 5
- Plant response rating, Foxtail, Giant [8, 22]: 40
- Plant response rating, Foxtail, Giant [8, 23]: 30
- Plant response rating (scale 0 to 100), Foxtail, Giant ([8]; Preemergence, 125 g ai/ha): 85
- Plant response rating, Foxtail, Giant [8, 24]: 5
- Plant response rating, Foxtail, Giant [8, 25]: 30
- Plant response rating, Foxtail, Giant [8, 26]: 85
- Plant response rating (scale 0 to 100), Johnsongrass ([9]; Postemergence, 16 g ai/ha): 0
- Johnsongrass plant response rating [9, 21]: 5
- Plant response rating, Johnsongrass [9, 22]: 5
- Plant response rating, Johnsongrass [9, 23]: 5
- Plant response rating (scale 0 to 100), Johnsongrass ([9]; Preemergence, 125 g ai/ha): 65
- Plant response rating, Johnsongrass [9, 24]: 0
- Plant response rating, Johnsongrass [9, 25]: 0
- Plant response rating, Johnsongrass [9, 26]: 20
- Plant response rating (scale 0 to 100), Crabgrass, Large ([10]; Postemergence, 16 g ai/ha): 5
- Crabgrass, Large plant response rating [10, 21]: 5
- Plant response rating, Crabgrass, Large [10, 22]: 5
- Plant response rating, Crabgrass, Large [10, 23]: 5
- Plant response rating (scale 0 to 100), Crabgrass, Large ([10]; Preemergence, 125 g ai/ha): 100
- Plant response rating, Crabgrass, Large [10, 24]: 10
- Plant response rating, Crabgrass, Large [10, 25]: 65
- Plant response rating, Crabgrass, Large [10, 26]: 75
- Plant response rating (scale 0 to 100), Morningglory ([11]; Postemergence, 16 g ai/ha): 30
- Morningglory plant response rating [11, 21]: 65
- Morningglory plant response rating [11, 22]: 85
- Plant response rating, Morningglory [11, 23]: 90
- Plant response rating (scale 0 to 100), Morningglory ([11]; Preemergence, 125 g ai/ha): 15
- Plant response rating, Morningglory [11, 24]: 0
- Plant response rating, Morningglory [11, 25]: 0
- Plant response rating, Morningglory [11, 26]: 0
- Plant response rating (scale 0 to 100), Pigweed ([12]; Postemergence, 16 g ai/ha): 80
- Pigweed plant response rating [12, 21]: 90
- Pigweed plant response rating [12, 22]: 98
- Plant response rating, Pigweed [12, 23]: 98
- Plant response rating (scale 0 to 100), Pigweed ([12]; Preemergence, 125 g ai/ha): 100
- Plant response rating, Pigweed [12, 24]: 30
- Plant response rating, Pigweed [12, 25]: 100
- Plant response rating, Pigweed [12, 26]: 100
- Plant response rating (scale 0 to 100), Ragweed ([13]; Postemergence, 16 g ai/ha): 30
- Ragweed plant response rating [13, 21]: 25
- Ragweed plant response rating [13, 22]: 50
- Plant response rating, Ragweed [13, 23]: 60
- Plant response rating (scale 0 to 100), Ragweed ([13]; Preemergence, 125 g ai/ha): 60
- Plant response rating, Ragweed [13, 24]: 25
- Plant response rating, Ragweed [13, 25]: 30
- Plant response rating, Ragweed [13, 26]: 40
- Plant response rating (scale 0 to 100), Soybean ([14]; Postemergence, 16 g ai/ha): 25
- Soybean plant response rating [14, 21]: 45
- Soybean plant response rating [14, 22]: 70
- Plant response rating, Soybean [14, 23]: 70
- Plant response rating (scale 0 to 100), Soybean ([14]; Preemergence, 125 g ai/ha): 45
- Plant response rating, Soybean [14, 24]: 0
- Plant response rating, Soybean [14, 25]: 0
- Plant response rating, Soybean [14, 26]: 30
- Plant response rating (scale 0 to 100), Waterhemp ([15]; Postemergence, 16 g ai/ha): 60
- Waterhemp plant response rating [15, 21]: 90
- Waterhemp plant response rating [15, 22]: 95
- Plant response rating, Waterhemp [15, 23]: 98
- Plant response rating (scale 0 to 100), Waterhemp ([15]; Preemergence, 125 g ai/ha): 100
- Plant response rating, Waterhemp [15, 24]: 75
- Plant response rating, Waterhemp [15, 25]: 90
- Plant response rating, Waterhemp [15, 26]: 90
- Plant response rating (scale 0 to 100), Nutsedge, Yellow ([16]; Postemergence, 16 g ai/ha): 5
- Nutsedge, Yellow plant response rating [16, 21]: 5
- Nutsedge, Yellow plant response rating [16, 22]: 5
- Plant response rating, Nutsedge, Yellow [16, 23]: 5
- Plant response rating (scale 0 to 100), Nutsedge, Yellow ([16]; Preemergence, 125 g ai/ha): 25
- Plant response rating, Nutsedge, Yellow [16, 24]: 0
- Plant response rating, Nutsedge, Yellow [16, 25]: 0
- Plant response rating, Nutsedge, Yellow [16, 26]: 0
